Test results from PubChem BioAssay (NCI).
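Interpolation was linear, between the two tested concentrations surrounding the appropriate level; five concentrations were tested over 48 hours in 96-well plates. Abbreviation: GI50, concentration required for 50% inhibition of growth. The concentration for full growth arrest is given as TGI.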

What was measured:
Experiment in all cases: NCI tumour cell line growth inhibition, 48 h
HOP-92 NSCLC = tested on: HOP-92 NSCLC
SK-MEL-5 melanoma = tested on: SK-MEL-5 melanoma
HCC-2998 colon = tested on: HCC-2998 colon
CCRF-CEM leukemia = tested on: CCRF-CEM leukemia
SW-620 colon = tested on: SW-620 colon
OVCAR-8 ovarian = tested on: OVCAR-8 ovarian
COLO 205 colon = tested on: COLO 205 colon
SNB-19 CNS = tested on: SNB-19 CNS
SK-OV-3 ovarian = tested on: SK-OV-3 ovarian
SN12C renal = tested on: SN12C renal

Structure (SMILES) | GI50 (HOP-92 NSCLC) | TGI (HOP-92 NSCLC) | GI50 (SK-MEL-5 melanoma) | TGI (SK-MEL-5 melanoma) | GI50 (HCC-2998 colon) | TGI (HCC-2998 colon) | GI50 (CCRF-CEM leukemia) | TGI (CCRF-CEM leukemia) | GI50 (SW-620 colon) | TGI (SW-620 colon) | GI50 (OVCAR-8 ovarian) | TGI (OVCAR-8 ovarian) | GI50 (COLO 205 colon) | TGI (COLO 205 colon) | GI50 (SNB-19 CNS) | TGI (SNB-19 CNS) | GI50 (SK-OV-3 ovarian) | TGI (SK-OV-3 ovarian) | GI50 (SN12C renal) | TGI (SN12C renal)
CC(=Nc1ccccc1)C1=C(O)C(Cc2ccc(O)cc2)NC1=O (centres undefined) | 0.082 µM | > 100 µM | 0.0512 µM | 2.37 µM | 0.124 µM | 0.641 µM | 0.131 µM | > 100 µM | 0.0485 µM | > 100 µM | 0.255 µM | > 100 µM | 0.076 µM | 0.28 µM | 0.23 µM | > 100 µM | 0.162 µM | > 50 µM | 0.991 µM | > 100 µM
CCOC(=O)NC1C2CC(=O)OC(O2)C1OC(C)=O (centres undefined) |  | > 100 µM |  | > 100 µM |  | > 100 µM |  | > 100 µM |  | > 100 µM |  | > 100 µM |  | > 100 µM |  | > 100 µM |  | > 100 µM |  | > 100 µM
C=C1C(=O)O[C@H]2[C@H]1CC/C(COC(=O)C(=O)c1cn(C)c3ccc(Cl)cc13)=C\CC[C@@]1(C)O[C@@H]21 | 1.72 µM | 3.62 µM | 1.55 µM | 2.91 µM | 1.86 µM | 3.52 µM | 0.338 µM | 10.9 µM | 0.857 µM | 10.9 µM | 2.1 µM | 10.1 µM | 1.96 µM | 4.2 µM | 2.16 µM | 6.13 µM | 3.28 µM |  | 1.39 µM | 4.71 µM
CCOC(=O)Cc1ccc2c(c1O)C(=O)c1c(ccc(CC(=O)OCC)c1O)C2=O |  | > 100 µM |  | > 100 µM |  | > 100 µM |  | > 100 µM |  | > 100 µM |  | > 100 µM |  | > 100 µM |  | > 100 µM |  | > 100 µM |  | > 100 µM
CC1=C(C(=O)Nc2cc(=O)n(C)c(=O)n2C)C(c2cccc([N+](=O)[O-])c2)C(C(=O)Nc2cc(=O)n(C)c(=O)n2C)=C(C)N1 |  | > 100 µM |  | > 100 µM |  | > 100 µM |  | > 100 µM |  | > 100 µM |  | > 100 µM |  | > 100 µM |  | > 100 µM |  | > 100 µM |  | > 100 µM
c1ccc2c(NCCCCCCNc3c4ccccc4nc4ccccc34)c3ccccc3nc2c1 |  | 1.97 µM |  | 2.86 µM |  | 1.76 µM |  | 1.58 µM |  | 2.18 µM |  | 3.18 µM |  | 1.58 µM |  | 4.92 µM |  | 4.31 µM |  | 4.25 µM
O=c1cc(N2CCN(CCCCCOc3cc(O)c4c(=O)cc(-c5ccccc5)oc4c3)CC2)c2ccccc2o1 | 26.1 µM | > 100 µM | 28 µM | > 100 µM | 48.3 µM | > 100 µM | 19.3 µM | > 100 µM | > 100 µM | > 100 µM | > 100 µM | > 100 µM | 70.5 µM | > 100 µM | > 100 µM | > 100 µM | > 100 µM | > 100 µM | 45.4 µM | > 100 µM
COc1cc2c(cc1OC)-c1ccc3cc4c(cc3c1N(CCCn1ccnc1)C2)OCO4 | 3.58 µM | 32.5 µM | 2.22 µM | 10.2 µM | 10.9 µM | 24.4 µM | 0.62 µM | 21.4 µM | 1.58 µM | 21 µM | 5.49 µM | 43.6 µM | 1.49 µM | 6.12 µM | 0.79 µM | 12.7 µM | 3.84 µM | 26.8 µM | 0.382 µM | 16.9 µM
C=C(C#N)C1OCC2OC(C)(C)OC21 (centres undefined) |  | 43.3 µM |  | 34 µM |  | 83.6 µM |  | 48.8 µM |  | 39.6 µM |  | 48.7 µM |  | 30.3 µM |  | > 100 µM |  | > 100 µM |  | 38.2 µM
CCOc1ccc(N=Cc2ccc3cc(C)ccc3n2)cc1 |  | > 100 µM |  | > 100 µM |  | > 100 µM |  | 60.6 µM |  | > 100 µM |  | > 100 µM |  | > 100 µM |  | > 100 µM |  | > 100 µM |  | > 100 µM
O=C1O/C(=C\c2ccccc2)N(c2ccccc2)C1=O |  | > 100 µM |  | > 100 µM |  | > 100 µM |  | > 100 µM |  | > 100 µM |  | > 100 µM |  | > 100 µM |  | > 100 µM |  | > 100 µM |  | > 100 µM
C=C1C(=O)O[C@H]2[C@H]1CC/C(COC(=O)c1cc3ccccc3o1)=C\CC[C@@]1(C)O[C@@H]21 | 1.44 µM | 3.1 µM | 1.52 µM | 2.89 µM | 2.47 µM | 5.84 µM | 0.335 µM | 4.03 µM | 0.662 µM | 2.49 µM | 2.43 µM | 7.63 µM | 1.55 µM | 3.15 µM | 3.16 µM | 13.3 µM | 16.7 µM | 32.7 µM | 1.78 µM | 4.12 µM
Cc1ccc(Cc2cnc(NC(=O)/C=C/c3cccc(C)c3)s2)cc1 | 0.0793 µM | > 57 µM | 0.404 µM | > 100 µM | 0.296 µM | > 37.1 µM | 0.0893 µM | > 53.6 µM | 0.0731 µM | > 100 µM | 0.447 µM | > 44.5 µM | 0.355 µM | > 100 µM | 0.224 µM | 23.1 µM | 0.85 µM | > 59.7 µM | 0.393 µM | > 56 µM
CS(=O)(=O)CCNCc1ccc(-c2ccc3ncnc(Nc4ccc(OCc5ccccc5)c(Br)c4)c3c2)o1 | 3.49 µM | 12.5 µM | 3.44 µM | 6.71 µM | 4.56 µM | 9.11 µM | 9.89 µM | > 25 µM | 5.29 µM | 11.1 µM | 9.62 µM | > 25 µM | 4.69 µM | 9.75 µM | > 20.8 µM | > 25 µM | 0.115 µM | > 25 µM | 11.9 µM | > 25 µM
